The results in this text go back to patent US20240174637A1, “DEGRADERS OF GRK2 AND USES THEREOF” (Sonata Therapeutics, Inc., priority 2021, published 2024).

Structures can show the parent of a compound that is named as a salt. Where two headings read alike, the source gives them in different places.

Experiment [1] concerns the target T1, GRK2 (Homo sapiens, UniProt P25098).
T1 sequence (P25098 1-689): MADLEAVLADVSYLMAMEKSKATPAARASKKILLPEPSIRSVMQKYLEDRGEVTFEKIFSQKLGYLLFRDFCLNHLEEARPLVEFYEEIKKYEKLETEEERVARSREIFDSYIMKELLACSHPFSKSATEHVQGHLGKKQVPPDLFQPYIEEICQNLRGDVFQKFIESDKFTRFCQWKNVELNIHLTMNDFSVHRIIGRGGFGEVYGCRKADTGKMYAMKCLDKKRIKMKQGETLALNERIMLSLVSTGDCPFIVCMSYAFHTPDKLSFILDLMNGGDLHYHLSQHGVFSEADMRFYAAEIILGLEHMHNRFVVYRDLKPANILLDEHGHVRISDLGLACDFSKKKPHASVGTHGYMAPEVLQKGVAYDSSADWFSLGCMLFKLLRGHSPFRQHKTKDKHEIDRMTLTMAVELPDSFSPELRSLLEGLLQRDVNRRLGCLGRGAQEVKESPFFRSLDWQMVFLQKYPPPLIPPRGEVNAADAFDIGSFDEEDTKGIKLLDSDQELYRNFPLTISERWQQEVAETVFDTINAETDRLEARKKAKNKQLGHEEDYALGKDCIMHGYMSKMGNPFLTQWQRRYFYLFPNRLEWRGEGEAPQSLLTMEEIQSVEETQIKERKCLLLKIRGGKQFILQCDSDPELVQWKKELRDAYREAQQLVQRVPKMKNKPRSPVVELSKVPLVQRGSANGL
As to the kind of experiment: GRK2 Inhibition Assay (TR-FRET, Example 1). In kind it is biochemical. Summed up:
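TR-FRET phosphorylation readout: Eu anti-TopoIIα antibody with EDTA added after a 90 min RT kinase reaction of 1 nM GRK2, 7 μM ATP and 50 nM ULight-TopoIIα. Compounds were pre-incubated with enzyme 30 min at room temperature beforehand.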
In general terms: TR-FRET usually uses a lanthanide donor and a delayed reading to cut background.

For experiment [2], the target named is T1, GRK2. As to the kind of experiment: GRK2 Degradation Assay and Western Blot in PAXF1657 cells. In kind it is cell-based. Set-up: endogenous in cells; host or cells: PAXF1657. The note with it: for DC50: PAXF1657, 24 h, read-out: Degradation Assay - Full Dose Response: IC50 (uM) [cell line: PAXF1657, time point: 24 h]. The gist of the method: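 GRK2 degradation judged by immunoblot: NP40 lysates separated by SDS-PAGE and probed for GRK2 and β-actin, with HRP/ECL detection. Lysates came from PAXF1657 cells exposed to 0–10 μM compound for 6–24 h after reaching 70% confluency.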
Background: In western blotting, separated proteins are transferred to a membrane and probed.

For experiment [3], the system named is PAXF1657 EV. Description: 7-day cellular proliferation assay (CellTiter-Glo), PAXF1657 EV. In kind it is cell-based. The gist of the method:
(§1)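 Viability by CellTiter-Glo after 7 days at 37° C., with compound-containing media replaced on day 3. Cells (500/well, RPMI1640 + 10% FBS) were PAXF1657 pairs: GRK2 overexpression vs empty vector, or CRISPR GRK2 knockout vs non-targeting clones; doses 30 μM-0.0002 μM final, 10 points, 0.3% DMSO.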
For orientation: Cellular ATP, detected with luciferase, serves as a proxy for viable cell number.

Experiment [4] deals with PAXF1657 KO Clone #4. As to the kind of experiment: 7-day cellular proliferation assay (CellTiter-Glo), PAXF1657 KO Clone #4. In kind it is cell-based. Summed up:
as §1

The mark [5] stands for this setting: TR-FRET, 7 μM ATP, read-out: Enzymatic GRK2 Assay: IC50 (nM) (Example 1).
[6] abbreviates: 1 uM, PAXF1657 EV, 24 hrs, read-out: % GRK2 degradation at 1 uM in PAXF1657 EV (24 hrs).
Where [7] appears, read: 3 uM, PAXF1657 EV, 24 hrs, read-out: % GRK2 degradation at 3 uM in PAXF1657 EV (24 hrs).
The mark [8] stands for this setting: 168 h, 7-day, read-out: 7-day proliferation assay: IC50 GeoMean (uM) [Cell Line: PAXF1657 EV].
Where [9] appears, read: 168 h, 7-day, read-out: 7-day proliferation assay: IC50 GeoMean (uM) [Cell Line: PAXF1657 KO Clone #4].
The mark [10] stands for this setting: Table 4, Example 1 assay, read-out: Enzymatic GRK2 IC50: Av IC50 GRK2.
Where [11] appears, read: Conc 0.3 uM, read-out: Degradation Assay - 3 point: Degradation (%).
The mark [12] stands for this setting: Conc 1 uM, read-out: Degradation Assay - 3 point: Degradation (%).
Setting [13] is: Conc 3 uM, read-out: Degradation Assay - 3 point: Degradation (%).
Where [14] appears, read: proliferation, read-out: GeoMean IC50 (UM) PAXF1657 EV.
Setting [15] is: proliferation, read-out: GeoMean IC50 (uM) PAXF1657 KO Clone #4.

As to `Cn1c(CNc2cccc(C(=O)NCc3cccc(OCCCCCn4cc(CCCC(=O)Nc5cccc6c5CN(C5CCC(=O)NC5=O)C6=O)nn4)c3)c2)nnc1-c1ccncn1` (stereo not drawn) [Compound D59], the values for the IC50 in experiment [1] (setting [5]), in experiment [3] (setting [8]) and in experiment [4] (setting [9]) were less than 100 nM, greater than 10 µM and greater than 10 µM, respectively. In addition, the inhibition at 0.3 µM in experiment [2] (0.3 uM, PAXF1657 EV, 24 hrs, read-out: % GRK2 degradation at 0.3 uM in PAXF1657 EV (24 hrs)) stood at 33%. Moreover, the inhibition at 1 µM in experiment [2] (setting [6]) is 18%. Moreover, in experiment [2] (setting [7]), the inhibition at 3 µM was 53%.

On to `C[C@@H](NC(=O)c1cccc(NCc2nnc(-c3ccncn3)n2C)c1)c1cccc(OCCCCCCOCCOCCNc2ccc3c(c2)CN(C2CCC(=O)NC2=O)C3=O)c1` (stereo partly drawn) [Compound D141, N-((1R)-1-(3-(6-(2-(2-(2-(2,6-dioxopiperidin-3-yl)-1-oxoisoindolin-5-ylamino)ethoxy)ethoxy)hexyloxy)phenyl)ethyl)-3-((4-methyl-5-(pyrimidin-4-yl)-4H-1,2,4-triazol-3-yl)methylamino)benzamide], for which the values for the IC50 in experiment [1] (setting [10]), in experiment [3] (setting [14]) and in experiment [4] (setting [15]) were 19.5 nM, 0.17 µM and 1.66 µM, respectively. In experiment [2] (setting [11]), the inhibition at 0.3 µM was 89%. For the same compound, the inhibition at 1 µM in experiment [2] (setting [12]) worked out at 88%. Moreover, the inhibition at 3 µM in experiment [2] (setting [13]) amounted to 67%. Also, the DC50 in experiment [2] worked out at 8.71 µM.

`C[C@H](NC(=O)c1cccc(NCc2nnc(-c3ccncn3)n2C)c1)c1cccc(OCCCCCCOCCOCCOCCCC(=O)Nc2cccc3c2CN(C2CCC(=O)NC2=O)C3=O)c1` (stereo partly drawn) [Compound D154, N-((1S)-1-(3-(6-(2-(2-(4-(2-(2,6-dioxopiperidin-3-yl)-1-oxoisoindolin-4-ylamino)-4-oxobutoxy)ethoxy)ethoxy)hexyloxy)phenyl)ethyl)-3-((4-methyl-5-(pyrimidin-4-yl)-4H-1,2,4-triazol-3-yl)methylamino)benzamide]: the IC50 in experiment [1] (setting [10]) was 183 nM; in experiment [3] (setting [14]), 4.39 µM; in experiment [4] (setting [15]) it was greater than 30 µM. Moreover, the inhibition at 0.3 µM in experiment [2] (setting [11]) was determined as 25.1%. The inhibition at 1 µM in experiment [2] (setting [12]) came to 19.5%. For the same compound, the inhibition at 3 µM in experiment [2] (setting [13]) was determined as 9.15%.

In the case of `Cc1ncsc1-c1ccc([C@H](C)NC(=O)[C@@H]2C[C@@H](O)CN2C(=O)[C@@H](NC(=O)CCCCCOCCOCCOCCCCCCOc2cccc(CNC(=O)c3cccc(NCc4nnc(-c5ccncn5)n4C)c3)c2)C(C)(C)C)cc1` [Compound D90], the IC50 in experiment [1] (setting [5]) was less than 100 nM; in experiment [3] (setting [8]) it was 1 to 10 µM; in experiment [4] (setting [9]), greater than 10 µM. Besides, the inhibition at 1 µM in experiment [2] (setting [6]) is 23%. Further, in experiment [2] (setting [7]), the inhibition at 3 µM amounted to 20%.

On to `CN[C@@H](C)C(=O)N[C@H](C(=O)N1CCC[C@H]1c1nc(C(=O)c2cccc(OCc3cn(CCCCCCOc4cccc([C@@H](C)NC(=O)c5cccc(NCc6nnc(-c7ccncn7)n6C)c5)c4)nn3)c2)cs1)C1CCCCC1` [Compound D105], for which the IC50 is 8.71 nM in experiment [1] (setting [10]), 0.11 µM in experiment [3] (setting [14]) and 3.72 µM in experiment [4] (setting [15]). Also, the inhibition at 0.3 µM in experiment [2] (setting [11]) stood at 87%. Moreover, the inhibition at 1 µM in experiment [2] (setting [12]) came out at 86%. Also, the inhibition at 3 µM in experiment [2] (setting [13]) came to 85%.

Take `C[C@@H](NC(=O)c1cccc(NCc2nnc(-c3ccncn3)n2C)c1)c1cccc(C(=O)N2CCC(CCCN3CCN(c4ccc5c(c4)CN(C4CCC(=O)NC4=O)C5=O)CC3)CC2)c1` (stereo partly drawn) [Compound D119, N-((1R)-1-(3-(4-(3-(4-(2-(2,6-dioxopiperidin-3-yl)-1-oxoisoindolin-5-yl)piperazin-1-yl)propyl)piperidine-1-carbonyl)phenyl)ethyl)-3-((4-methyl-5-(pyrimidin-4-yl)-4H-1,2,4-triazol-3-yl)methylamino)benzamide hydrochloride]: the IC50 came out at 16.1 nM in experiment [1] (setting [10]), 0.116 µM in experiment [3] (setting [14]) and 2.73 µM in experiment [4] (setting [15]). In addition, in experiment [2] (setting [11]), the inhibition at 0.3 µM was 90%. For the same compound, in experiment [2] (setting [12]), the inhibition at 1 µM came to 93.7%. Moreover, in experiment [2] (setting [13]), the inhibition at 3 µM was 89%.

As to `Cc1ncsc1-c1ccc(CNC(=O)[C@@H]2C[C@@H](O)CN2C(=O)[C@@H](NC(=O)CCCCOCCOCCOCCCCCCOc2cccc(CNC(=O)c3cccc(NCc4nnc(-c5ccncn5)n4C)c3)c2)C(C)(C)C)cc1` [Compound D109, (2S,4R)-1-((S)-2-(tert-butyl)-21-(3-((3-(((4-methyl-5-(pyrimidin-4-yl)-4H-1,2,4-triazol-3-yl)methyl)amino)benzamido)methyl)phenoxy)-4-oxo-9,12,15-trioxa-3-azahenicosan-1-oyl)-4-hydroxy-N-(4-(4-methylthiazol-5-yl)benzyl)pyrrolidine-2-carboxamide], the IC50 stood at 54.9 nM in experiment [1] (setting [10]), 0.68 µM in experiment [3] (setting [14]) and 5.17 µM in experiment [4] (setting [15]). In addition, the inhibition at 0.3 µM in experiment [2] (setting [11]) is 26.1%. Besides, the inhibition at 1 µM in experiment [2] (setting [12]) is 45.9%. Also, in experiment [2] (setting [13]), the inhibition at 3 µM amounted to 66.6%.

Take `Cc1ncsc1-c1ccc(CNC(=O)[C@@H]2C[C@@H](O)CN2C(=O)[C@@H](NC(=O)CCCCCOCCOCCOCCCCCCOc2ccc(CNC(=O)c3cccc(NCc4nnc(-c5ccncn5)n4C)c3)cc2)C(C)(C)C)cc1` [Compound D87]: the IC50 was less than 100 nM in experiment [1] (setting [5]), 1 to 10 µM in experiment [3] (setting [8]) and greater than 10 µM in experiment [4] (setting [9]). Besides, the inhibition at 1 µM in experiment [2] (setting [6]) amounted to 23%. Further, the inhibition at 3 µM in experiment [2] (setting [7]) turned out to be 18%.

As to `C[C@@H](NC(=O)c1cccc(NCc2nnc(-c3ccncn3)n2C)c1)c1ccc(OCC(=O)N2CCN(c3ccc4c(c3)CN(C3CCC(=O)NC3=O)C4=O)CC2)cc1` (stereo partly drawn) [Compound D177, N-((1R)-1-(4-(2-(4-(2-(2,6-dioxopiperidin-3-yl)-1-oxoisoindolin-5-yl)piperazin-1-yl)-2-oxoethoxy)phenyl)ethyl)-3-((4-methyl-5-(pyrimidin-4-yl)-4H-1,2,4-triazol-3-yl)methylamino)benzamide], the IC50 was 10.2 nM in experiment [1] (setting [10]), 27 µM in experiment [3] (setting [14]) and greater than 30 µM in experiment [4] (setting [15]). Further, the inhibition at 0.3 µM in experiment [2] (setting [11]) turned out to be 13.2%. Moreover, the inhibition at 1 µM in experiment [2] (setting [12]) is 20.9%. Besides, the inhibition at 3 µM in experiment [2] (setting [13]) turned out to be 36.8%.

For the compound `C[C@@H](NC(=O)c1cccc(NCc2nnc(-c3ccncn3)n2C)c1)c1cccc(OCCCCCCOCCOCCNc2cccc3c2CN(C2CCC(=O)NC2=O)C3=O)c1` (stereo partly drawn) [Compound D143], the IC50 in experiment [1] (setting [10]) came to 10.4 nM; in experiment [3] (setting [14]), 0.11 µM; in experiment [4] (setting [15]), 5.32 µM. Moreover, the inhibition at 0.3 µM in experiment [2] (setting [11]) amounted to 88%. The inhibition at 1 µM in experiment [2] (setting [12]) turned out to be 82%. Besides, in experiment [2] (setting [13]), the inhibition at 3 µM came out at 83%. For the same compound, the DC50 in experiment [2] came to 0.11 µM.

As for `Cc1ncsc1-c1ccc(CNC(=O)[C@@H]2C[C@@H](O)CN2C(=O)[C@@H](NC(=O)CCCCCOCCOCCOCCCCCCOc2cccc([C@@H](C)NC(=O)c3cccc(NCc4nnc(-c5ccncn5)n4C)c3)c2)C(C)(C)C)cc1` [Compound D162], the IC50 was determined as 14.1 nM in experiment [1] (setting [10]), 0.49 µM in experiment [3] (setting [14]) and 11.4 µM in experiment [4] (setting [15]). Besides, the inhibition at 0.3 µM in experiment [2] (setting [11]) worked out at 51%. Moreover, the inhibition at 1 µM in experiment [2] (setting [12]) came to 72.7%. For the same compound, the inhibition at 3 µM in experiment [2] (setting [13]) was found to be 72.9%.
